Test results as given in publication PMC12274739, “Differential substrate degradation by super-degron: EGFP in wild-type mouse cells, PD-1 requires CRBN humanization” (iScience, 2025).

Tests used:
[1] = test system: mouse PD-1-mCherry-Sall4 tag; assay type: cell-based, human; conditions: Jurkat, 24 h
[2] = cited from earlier work
PD-1-SD = assay: Exogenous PD-1-SD degradation in mESCs; assay type: cell-based, mouse
Procedure: The dotted lines show an isotype control without IBR. […] The dotted lines show an isotype control without IBR. […] The black lines show isotype control without IBR. […] Red lines show the boundary between positive and negative. […] (B–J) IBR or solvent (−) was added to cultured splenocytes (B–G) or mESCs (H–J). […] The concentration is 0.1 μM in the rightmost bar in each group, and the left neighbor is a step dilution of one-tenth. Intensities of anti-PD-1-FITC on CD4^+ and CD8^+ T cells were measured by flow cytometry, and the geometric means of fluorescence intensities (MFI) were calculated. The MFI of the isotype control of anti-PD-1-FITC was subtracted from each MFI of anti-PD-1-FITC. The dots indicate the results of the experiment for each of the three samples from different individuals.
To determine whether the same phenomenon occurs in non-T cells, exogenous PD-1 degradation was examined in mESCs transfected with PD-1-SD expression vectors (Figures 6H–6J and S6E). […] We hypothesized that the degradation efficiency of membrane-localized proteins might be reduced in mouse-type CRBNs. Therefore, we expressed EGFP-SDs with membrane-localized peptides attached to their N-termini in mESCs and added IBR. The degradation efficiency of EGFP-SD with membrane-localization peptide[32] […] Therefore, Pdcd1^SD/SD/Crbn^I391V/I391V mice were used for further analyses.

GL-261 = GL-261 orthotopic model, growth in brain by MRI; assay type: in vivo, mouse; conditions: Pdcd1SD/SD/CrbnI391V/I391V mice, IBR oral administration
Description: In vivo proliferation of another tumor cell line, GL-261 […], was also examined to confirm the effect of PD-1 reduction other than the MC-38 adenocarcinoma cell line.[34]
GL-261 cells were passaged one day before inoculation and resuspended in HBSS at a concentration of 1 × 10^7 cells/mL. The mice were anesthetized by intraperitoneal injection of a combination of the three drugs described in the previous section and immobilized in a stereotactic frame (RWD Life Science, US). After a midline scalp incision, a small burr hole located 2 mm to the right and 1 mm anterior to the bregma was drilled into the skull (AP:1.0 mm, ML:-2.0 mm). The syringe needle was inserted at a depth of 3.0 mm and then raised 0.4 mm to get to a depth of 2.6 mm. 2 μL of cell (2 x10^4 cells) was injected using a 10 μL syringe (Hamilton, USA) connected to a syringe pump (KD Scientific, US; injection rate: 0.5 μL/min). After injection, the needle was left in place for an additional 5 min to avoid backflow. […]
All the MR experiments were performed at the Medical Research Support Center, Graduate School of Medicine, Kyoto University, Japan. […] The respiratory rate and rectal temperature of the animals were continuously monitored using a dedicated system (Model 1025, MR-compartible Small Animal Monitoring & Gating System; SA Instruments, Inc., NY, USA) and software (PC-SAM V8.04; SA Instruments). […]

Row | Compound | Bottom, PD-1 (FITC) ([1]; SALL4 tag, surface PD-1, no reagent = 1) | effect on protein levels ([1]; Sall4 tag) | blood-brain barrier (BBB) passage [2] | PD-1 degradation (PD-1-SD; Crbn+/+ mESCs transfected with PD-1-SD) | PD-1 degradation (PD-1-SD; CrbnI391V/I391V mESCs transfected with PD-1-SD) | proliferation of GL-261 (GL-261)
1 | Nc1cccc2c1C(=O)N(C1CCC(=O)NC1=O)C2=O (stereo not drawn) [POM, pomalidomide] | 0.9333 | did not reduce protein levels | passes through the BBB | – | – | –
2 | O=C1CC[C@H](N2Cc3c(OCc4ccc(CN5CCOCC5)cc4)cccc3C2=O)C(=O)N1 [IBR, iberdomide] | – | – | – | barely degraded | degraded | suppressed
